Assay: xn = mol fraction of the nth substance listed
Conditions: 101 kPa

CCC[N+]1(C)CCCC1.O=S(=O)([N-]S(=O)(=O)C(F)(F)F)C(F)(F)F + O=C1CCCO1
viscosity [mPa·s]
Conditions	278.15 K	288.15 K	298.15 K	308.15 K	318.15 K	328.15 K	338.15 K	348.15 K	358.15 K
x1 = 0.0657	–	3.14	2.65	2.296	1.951	1.694	–	1.328	1.191
x1 = 0.1741	6.97	–	4.45	3.67	3.08	–	–	–	–
x1 = 0.3874	16.24	11.87	9.04	7.09	5.71	4.7	3.95	3.37	2.92
x1 = 1	–	96.2	60.6	40.8	28.9	21.3	16.29	12.82	–

O=C1CCCO1 + CCC[N+]1(C)CCCC1.O=S(=O)([N-]S(=O)(=O)C(F)(F)F)C(F)(F)F
x2 = 0
Conditions	viscosity [mPa·s]
278.15 K	2.56
298.15 K	1.859
308.15 K	1.641
328.15 K	1.242
338.15 K	1.106
358.15 K	0.894

Source: a compilation of properties of binary mixtures (doi:10.1016/j.molliq.2022.119758)
